Laboratory results taken from ChEMBL document CHEMBL5532656, “Novel ligustilide derivatives target quorum sensing system LasR/LasB and relieve inflammatory response against Pseudomonas aeruginosa infection” (Eur J Med Chem, 2024).
The source made the active and inactive calls. The calls are words filed in the database; no cut-off is given here.

What was measured:
[1] = Toxicity in BALB/c mouse assessed as effect on body weight at 2 to 4 mg/kg, IG; type: organism-based; details: in vivo, po, dose 2-4 mg/kg
RAW264.7 [2] = assay: Antiinflammatory activity in mouse RAW264.7 cells assessed as reduction in IL-6 mRNA expression at 2.5 to 10 uM by RT-PCR analysis; type: functional, cell-based; details: dose 2.5-10 µM
[3] = Toxicity in BALB/c mouse assessed as effect on lung at 2 to 4 mg/kg, PO measured after 7 days by H and E staining based analysis; type: organism-based; details: in vivo, 168 h, dose 2-4 mg/kg, time 7 day
RAW264.7 [4] = assay: Inhibition of JNK signaling in mouse RAW264.7 cells assessed as reduction in LPS induced JNK phosphorylation by Western blot analysis; type: cell-based
Mus musculus [5] = assay: Anti-inflammatory activity against LPS-induced acute lung injury mouse model assessed as downregulation of IL-6 level administered as po dose preincubated for 4 hrs followed by LPS stimulation and measured after 6 hrs by ELISA method; type: functional, organism-based; details: dose 1-2 mg/kg, time 10.0 hrs
RAW264.7 [6] = assay: Antiinflammatory activity in LPS-induced mouse RAW264.7 cells assessed as inhibition of IL-1 beta production pretreated for 3 hrs followed by LPS stimulation and measured after 24 hrs by ELISA method; type: functional, cell-based
RAW264.7 [7] = assay: Antiinflammatory activity in LPS-induced mouse RAW264.7 cells assessed as decrease in COX-2 expression level pretreated for 3 hrs followed by LPS stimulation and measured after 24 hrs by Western blot analysis; type: functional, cell-based; details: dose 1.25-10 µmol/L, time 27.0 hrs
RAW264.7 [8] = assay: Antiinflammatory activity in LPS-induced mouse RAW264.7 cells assessed as inhibition of NF-kappaB p65 expression pretreated for 3 hrs followed by LPS stimulation and measured after 24 hrs by Western blot analysis; type: functional, cell-based; details: dose 1.25-10 µmol/L, time 27.0 hrs
Mus musculus [9] = assay: Anti-inflammatory activity against LPS-induced acute lung injury mouse model assessed as downregulation of TNF-alpha level administered as po dose preincubated for 4 hrs followed by LPS stimulation and measured after 6 hrs by ELISA method; type: functional, organism-based; details: dose 1-2 mg/kg, time 10.0 hrs
[10] = Toxicity in BALB/c mouse assessed as effect on animal health at 2 to 4 mg/kg, IG; type: organism-based; details: in vivo, po, dose 2-4 mg/kg
Mus musculus [11] = assay: Anti-inflammatory activity against LPS-induced acute lung injury mouse model assessed as reduction in iNOS mRNA expression at 1 to 2 mg/kg, po preincubated for 4 hrs followed by LPS stimulation and measured after 6 hrs; type: functional, organism-based; details: dose 1-2 mg/kg, time 10.0 hrs
Mus musculus [12] = assay: Anti-inflammatory activity against LPS-induced acute lung injury mouse model assessed as downregulation of IL-1 beta level administered as po dose preincubated for 4 hrs followed by LPS stimulation and measured after 6 hrs by ELISA method; type: functional, organism-based; details: dose 1-2 mg/kg, time 10.0 hrs
RAW264.7 [13] = assay: Antiinflammatory activity in mouse RAW264.7 cells assessed as reduction in IL-1 beta mRNA expression at 2.5 to 10 uM by RT-PCR analysis; type: functional, cell-based; details: dose 2.5-10 µM
[14] = Cytotoxicity against African green monkey Vero cells assessed as reduction in cell viability at <20 uM measured after 24 hrs by MTT assay; type: toxicity, cell-based; details: chlorocebus sabaeus
[15] = Cytotoxicity against African green monkey Vero cells assessed as reduction in cell viability at 50 uM measured after 24 hrs by MTT assay; type: toxicity, cell-based; details: chlorocebus sabaeus
Mus musculus [16] = assay: Anti-inflammatory activity against LPS-induced acute lung injury mouse model assessed as reduction in IL-1 beta mRNA expression at 1 to 2 mg/kg, po preincubated for 4 hrs followed by LPS stimulation and measured after 6 hrs; type: functional, organism-based; details: dose 1-2 mg/kg, time 10.0 hrs
RAW264.7 [17] = assay: Inhibition of LPS-induced ROS production in mouse RAW264.7 cells by DCFH-DA staining based fluorescence method; type: functional, cell-based
Mus musculus [18] = assay: Anti-inflammatory activity against LPS-induced acute lung injury mouse model assessed as reduction in COX-2 mRNA expression at 1 to 2 mg/kg, po preincubated for 4 hrs followed by LPS stimulation and measured after 6 hrs; type: functional, organism-based; details: dose 1-2 mg/kg, time 10.0 hrs
RAW264.7 [19] = assay: Antiinflammatory activity in LPS-induced mouse RAW264.7 cells assessed as decrease in iNOS expression level pretreated for 3 hrs followed by LPS stimulation and measured after 24 hrs by Western blot analysis; type: functional, cell-based; details: dose 1.25-10 µmol/L, time 27.0 hrs
[20] = Inhibition of quorum sensing system in Pseudomonas aeruginosa PAO1-lasB-gfp assessed as reduction in GFP expression incubated for 14 hrs
[21] = Inhibition of quorum sensing system in Pseudomonas aeruginosa PAO1-lasB-gfp at 10 uM relative to control
RAW264.7 [22] = assay: Antiinflammatory activity in LPS-induced mouse RAW264.7 cells assessed as inhibition of IkappaB-alpha expression pretreated for 3 hrs followed by LPS stimulation and measured after 24 hrs by Western blot analysis; type: functional, cell-based; details: dose 1.25-10 µmol/L, time 27.0 hrs
RAW264.7 [23] = assay: Antiinflammatory activity in LPS-induced mouse RAW264.7 cells assessed as inhibition of IL-6 production pretreated for 3 hrs followed by LPS stimulation and measured after 24 hrs by ELISA method; type: functional, cell-based
[24] = Toxicity in BALB/c mouse assessed as effect on spleen at 2 to 4 mg/kg, PO measured after 7 days by H and E staining based analysis; type: organism-based; details: in vivo, 168 h, dose 2-4 mg/kg, time 7 day
Mus musculus [25] = assay: Protection against LPS-induced acute lung injury mouse model assessed as inhibition of alveolar wall thickening at 1 to 2 mg/kg, po preincubated for 4 hrs followed by LPS stimulation and measured after 6 hrs by H and E staining based analysis; type: functional, organism-based; details: dose 1-2 mg/kg, time 10.0 hrs
RAW264.7 [26] = assay: Cytotoxicity against mouse RAW264.7 cells assessed as reduction in cell viability at 50 uM measured after 24 hrs by MTT assay; type: functional, cell-based
[27] = Toxicity in Zebra fish AB embryo assessed as viability of zebrafish larvae at <50 uM measured upto 120 hrs post fertilization by stereomicroscopic analysis; set-up: species or system Danio rerio
RAW264.7 [28] = assay: Antiinflammatory activity in LPS-induced mouse RAW264.7 cells assessed as decrease in NLRP3 expression level pretreated for 3 hrs followed by LPS stimulation and measured after 24 hrs by Western blot analysis; type: functional, cell-based; details: dose 1.25-10 µmol/L, time 27.0 hrs
Mus musculus [29] = assay: Protection against LPS-induced acute lung injury mouse model assessed as inhibition of neutrophil infiltration at 1 to 2 mg/kg, po preincubated for 4 hrs followed by LPS stimulation and measured after 6 hrs by H and E staining based analysis; type: functional, organism-based; details: dose 1-2 mg/kg, time 10.0 hrs
RAW264.7 [30] = assay: Antiinflammatory activity in mouse RAW264.7 cells assessed as reduction in iNOS mRNA expression at 2.5 to 10 uM by RT-PCR analysis; type: functional, cell-based; details: dose 2.5-10 µM
RAW264.7 [31] = assay: Cytotoxicity against mouse RAW264.7 cells assessed as reduction in cell viability at <20 uM measured after 24 hrs by MTT assay; type: functional, cell-based
RAW264.7 [32] = assay: Antiinflammatory activity in LPS-induced mouse RAW264.7 cells assessed as inhibition of TNF-alpha production pretreated for 3 hrs followed by LPS stimulation and measured after 24 hrs by ELISA method; type: functional, cell-based
Mus musculus [33] = assay: Anti-inflammatory activity against LPS-induced acute lung injury mouse model assessed as reduction in IL-6 mRNA expression at 1 to 2 mg/kg, po preincubated for 4 hrs followed by LPS stimulation and measured after 6 hrs; type: functional, organism-based; details: dose 1-2 mg/kg, time 10.0 hrs
Mus musculus [34] = assay: Anti-inflammatory activity against LPS-induced acute lung injury mouse model assessed as reduction in myeloperoxidase activity at 1 to 2 mg/kg, po preincubated for 4 hrs followed by LPS stimulation and measured after 6 hrs by spectrophotometer analysis; type: functional, organism-based; details: dose 1-2 mg/kg, time 10.0 hrs
[35] = Toxicity in BALB/c mouse assessed as effect on liver at 2 to 4 mg/kg, PO measured after 7 days by H and E staining based analysis; type: organism-based; details: in vivo, 168 h, dose 2-4 mg/kg, time 7 day

## CCCCC1(O)C2=C(C=CCC2)C(=O)N1Cc1ccc(C(F)(F)F)cc1 (stereo unspecified)
[1]
  Activity: Toxic
RAW264.7 [2]
  Activity: Active
[3]
  Activity: Non-Toxic
RAW264.7 [4]
  inhibition: Active
Mus musculus [5]
  Activity: Dose-Dependent Effect
RAW264.7 [6]
  IC50: 18.2 µM
RAW264.7 [7]
  Activity: Dose-Dependent Effect
RAW264.7 [8]
  Activity: Dose-Dependent Effect
Mus musculus [9]
  Activity: Dose-Dependent Effect
[10]
  Activity: Non-Toxic
Mus musculus [11]
  Activity: Active
Mus musculus [12]
  Activity: Dose-Dependent Effect
RAW264.7 [13]
  Activity: Active
[14]
  Activity: Non-Toxic
[15]
  Activity: Toxic
Mus musculus [16]
  Activity: Active
RAW264.7 [17]
  IC50: 1.44 µM
Mus musculus [18]
  Activity: Active
RAW264.7 [19]
  Activity: Dose-Dependent Effect
[20]
  IC50: 8.7 µM
[20]; dose 0.625-10 µM
  inhibition: Dose-Dependent Effect
[21]
  inhibition: 51.6%
RAW264.7 [22]
  Activity: Dose-Dependent Effect
RAW264.7 [23]
  IC50: 2.61 µM
[24]
  Activity: Non-Toxic
Mus musculus [25]
  Activity: Active
RAW264.7 [26]
  Activity: Active
[27]
  Activity: Non-Toxic
RAW264.7 [28]
  Activity: Dose-Dependent Effect
Mus musculus [29]
  Activity: Active
RAW264.7 [30]
  Activity: Active
RAW264.7 [31]
  Activity: inactive
RAW264.7 [32]
  IC50: 6.2 µM
Mus musculus [33]
  Activity: Active
Mus musculus [34]
  Activity: Active
[35]
  Activity: Non-Toxic
